The values below come from patent US20080033274A1, “Device and Method for Monitoring the Functioning of the Lower Esophageal Sphincter” (Altana Pharma AG, priority 2004, published 2008).

The test system of this assay is transient lower esophageal sphincter relaxations (TLESRs) in the conscious dog. Kind of assay: Number of TLESRs (hydrogen marker gas eructations) in gastric fistula dog under barostat gastric pressure. Format: in vivo. The settings on record: 7 μmol/kg i.v., 12 mm Hg to the stomach. From the text:
The various aspects of the invention were studied with fistula dogs. The fistula is inserted into the stomach of the dog by methods known to the expert, for example as described in Postius S, Braeuer U. Loss of circadian rhythm in luminal acidity of canine stomach by implantation of a gastric fistula. Digestion. 1995; 56(1):3540.
The method according to the invention was used to quantify the number of transient lower esophageal sphincter relaxations (TLESRs, leading to gas refluxes) in the conscious dog, which are provoked by the introduction of hydrogen gas in the stomach. The method can be used with fasted or fed animals and it is not depending on the status of gastric acid secretion.
For the assessment of TLESRs, the gastric fistula dogs were temporarily connected via the gastric fistula to a barostat which continuously measures the gastric pressure and continuously approximates during the monitoring of the marker gas a target pressure by sucking or pumping a gas mixture of air and hydrogen, comprising 0.2-3% hydrogen, whereby 3% of hydrogen was yielding the highest sensitivity.
A target pressure was selected that causes an appropriate number of TLESRs, usually for a period of 30 min. […] The quantification of TLESRs resulting in eructations was performed by continuous collection of the gas in front of and in the middle of nose and mouth of the dog with an open measuring probe head. This gas, comprising hydrogen from the gastric gas mixture, which eructed if the dog is belching, was sucked to a hydrogen sensor (Model used: UST 2330, UST—Umweltsensortechnik GmbH, 98716 Geschwenda, Germany) registering the hydrogen concentration. Significant enhancement in hydrogen concentration in the collected gas was defined to represent a TLESR caused by an eruction. […] Some eructions occurred at 6 mm Hg and lots were measured above 12 mm Hg. However, above 12-14 mm Hg vomiting might be induced as well.
The study design was as follows: […]
0-30 minutes: detection of the number of TLESR by monitoring the concentration of hydrogen detected in the sensor […]

As to `NCC(CC(=O)O)c1ccc(Cl)cc1` (stereo not drawn) [Baclofen], the “Number of TLESR detected in the time period indicated” value is, setting by setting: (time period 0-10 minutes) 0.75; (time period 10-20 minutes) 0.25; (time period 20-30 minutes) 1.75.
